From the NIST ThermoML archive (doi:10.1021/acs.jced.7b00381)
± gives the expanded uncertainty stated by the source.

Conditions: Fluid (supercritical or subcritical phases), isochoric method

FC(F)(F)/C=C/C(F)(F)F [trans-1,1,1,4,4,4-hexafluoro-2-butene]
Conditions | mass density [kg/m3]
323.43 K, 579.7 kPa | 1212.1 ± 4.9
333.44 K, 5332.4 kPa | 1210.9 ± 4.9
333.46 K, 1305.2 kPa | 1180.7 ± 4.7
343.44 K, 10088 kPa | 1209.8 ± 4.9
343.45 K, 5602.3 kPa | 1179.6 ± 4.7
353.44 K, 1232.2 kPa | 1093.7 ± 6
353.44 K, 4087.2 kPa | 1128.3 ± 4.5
353.46 K, 9911.4 kPa | 1178.4 ± 4.7
363.43 K, 7766.9 kPa | 1127.2 ± 4.5
363.44 K, 4495.7 kPa | 1092.6 ± 4.4
363.45 K, 2343 kPa | 1061.2 ± 4.3
373.43 K, 1203.4 kPa | 83.9 ± 11
373.43 K, 1779.9 kPa | 991.3 ± 14
373.44 K, 7789.6 kPa | 1091.5 ± 4.4
373.46 K, 5302.7 kPa | 1060.2 ± 4.3
383.41 K, 1661.4 kPa | 129.2 ± 6.5
383.43 K, 2410.5 kPa | 940.3 ± 4.4
383.44 K, 1263 kPa | 83.9 ± 1
383.44 K, 4128.8 kPa | 990.3 ± 4
383.46 K, 8290.7 kPa | 1059.2 ± 4.3
393.42 K, 1764.3 kPa | 129.1 ± 5.6
393.44 K, 1320.8 kPa | 83.8 ± 0.9
393.44 K, 6524 kPa | 989.3 ± 4
393.45 K, 2531 kPa | 848.7 ± 4.2
393.45 K, 4410.6 kPa | 939.4 ± 3.8
403.43 K, 1863.4 kPa | 128.9 ± 1.9
403.43 K, 2784.5 kPa | 594.5 ± 22
403.43 K, 3331.6 kPa | 794.2 ± 3.6
403.44 K, 1377.2 kPa | 83.7 ± 0.9
403.44 K, 2465.8 kPa | 220.8 ± 4
403.44 K, 2774.4 kPa | 460.7 ± 22
403.44 K, 2774.7 kPa | 402.7 ± 28
403.44 K, 2776.5 kPa | 535.5 ± 22
403.44 K, 4004.8 kPa | 847.9 ± 3.4
403.44 K, 8946 kPa | 988.4 ± 4
403.45 K, 2727.9 kPa | 325 ± 23
403.45 K, 2855.7 kPa | 688.4 ± 5.1
403.45 K, 3069.1 kPa | 755.5 ± 4.3
403.45 K, 6453.8 kPa | 938.5 ± 3.8
413.42 K, 1959.4 kPa | 128.8 ± 1.6
413.42 K, 3461.5 kPa | 594 ± 4.2
413.43 K, 3371.4 kPa | 535 ± 6.3
413.43 K, 4600.2 kPa | 793.4 ± 3.3
413.43 K, 5530.3 kPa | 847.1 ± 3.4
413.44 K, 1432.9 kPa | 83.6 ± 0.8
413.44 K, 2664.9 kPa | 220.6 ± 1.7
413.44 K, 3213.6 kPa | 402.3 ± 5.4
413.44 K, 3284.4 kPa | 460.2 ± 7.2
413.44 K, 8521.8 kPa | 937.6 ± 3.8
413.45 K, 3064.7 kPa | 324.7 ± 3.9
413.45 K, 4177.9 kPa | 754.8 ± 3.2
413.46 K, 3739.9 kPa | 687.7 ± 3.5
423.42 K, 2053.6 kPa | 128.7 ± 1
423.42 K, 3980.8 kPa | 534.4 ± 3.6
423.42 K, 4173.8 kPa | 593.4 ± 3.1
423.43 K, 1487.5 kPa | 83.5 ± 0.8
423.43 K, 3786.7 kPa | 459.8 ± 3.9
423.43 K, 5906.9 kPa | 792.7 ± 3.2
423.44 K, 7088.7 kPa | 846.2 ± 3.4
423.45 K, 2857.2 kPa | 220.3 ± 2
423.45 K, 3387.7 kPa | 324.4 ± 2.4
423.45 K, 3637.3 kPa | 402 ± 3.2
423.45 K, 5329 kPa | 754 ± 3.1
423.46 K, 4672.9 kPa | 687 ± 3.1
433.42 K, 2146.1 kPa | 128.6 ± 0.9
433.42 K, 4598 kPa | 533.9 ± 2.9
433.42 K, 4900.8 kPa | 592.8 ± 2.7
433.43 K, 1541.9 kPa | 83.4 ± 0.7
433.43 K, 4284.4 kPa | 459.3 ± 2.8
433.43 K, 4286.7 kPa | 459.3 ± 2.8
433.43 K, 8666.9 kPa | 845.4 ± 3.4
433.44 K, 3703.4 kPa | 324.1 ± 2
433.44 K, 7237.5 kPa | 791.9 ± 3.2
433.45 K, 3045.2 kPa | 220.1 ± 1.4
433.45 K, 4055.4 kPa | 401.6 ± 2.5
433.45 K, 5628.3 kPa | 686.4 ± 2.9
433.45 K, 6506.9 kPa | 753.3 ± 3.1
443.42 K, 1595.5 kPa | 83.4 ± 0.7
443.42 K, 5218.7 kPa | 533.4 ± 2.6
443.42 K, 5638.1 kPa | 592.3 ± 2.6
443.43 K, 2237.3 kPa | 128.4 ± 0.9
443.43 K, 4783.2 kPa | 458.9 ± 2.4
443.44 K, 4469 kPa | 401.2 ± 2.2
443.44 K, 7698.7 kPa | 752.6 ± 3.1
443.44 K, 8584 kPa | 791.1 ± 3.2
443.45 K, 3230.1 kPa | 219.9 ± 1.3
443.45 K, 4013.8 kPa | 323.8 ± 1.8
443.45 K, 6600.4 kPa | 685.7 ± 2.8
453.42 K, 2327.6 kPa | 128.3 ± 0.8
453.42 K, 5843.1 kPa | 532.9 ± 2.4
453.42 K, 6380.9 kPa | 591.7 ± 2.5
453.43 K, 1648.3 kPa | 83.3 ± 0.7
453.44 K, 4319.3 kPa | 323.4 ± 1.7
453.44 K, 5280.1 kPa | 458.5 ± 2.2
453.44 K, 9941.5 kPa | 790.4 ± 3.2
453.45 K, 3412.1 kPa | 219.7 ± 1.2
453.46 K, 4880.1 kPa | 400.8 ± 2
453.46 K, 7584.8 kPa | 685 ± 2.8
453.46 K, 8905 kPa | 751.8 ± 3.1
463.42 K, 1700 kPa | 83.2 ± 0.7
463.42 K, 7127.1 kPa | 591.1 ± 2.5
463.44 K, 2415.5 kPa | 128.2 ± 0.8
463.44 K, 6468.5 kPa | 532.4 ± 2.3
463.45 K, 5285.9 kPa | 400.4 ± 1.9
463.45 K, 10115 kPa | 751.1 ± 3
463.46 K, 3590.1 kPa | 219.5 ± 1.1
463.46 K, 4621.8 kPa | 323.1 ± 1.6
463.46 K, 5775.9 kPa | 458 ± 2.1
463.47 K, 8574.6 kPa | 684.4 ± 2.8
473.43 K, 7093.2 kPa | 531.9 ± 2.3
473.43 K, 7877 kPa | 590.5 ± 2.4
473.44 K, 1751.3 kPa | 83.1 ± 0.6
473.45 K, 3766 kPa | 219.3 ± 1.1
473.45 K, 4919.9 kPa | 322.8 ± 1.5
473.45 K, 5690.2 kPa | 400 ± 1.8
473.45 K, 6269.7 kPa | 457.6 ± 2
473.46 K, 2503.4 kPa | 128.1 ± 0.8
473.46 K, 9568.9 kPa | 683.7 ± 2.8
483.43 K, 7718.7 kPa | 531.4 ± 2.2
483.44 K, 6093 kPa | 399.6 ± 1.8
483.44 K, 6761.7 kPa | 457.1 ± 2
483.44 K, 8628.9 kPa | 590 ± 2.4
483.45 K, 1803.6 kPa | 83 ± 0.6
483.45 K, 5216.5 kPa | 322.5 ± 1.5
483.46 K, 2590.8 kPa | 128 ± 0.7
483.46 K, 3941.1 kPa | 219.1 ± 1.1
493.42 K, 8344.4 kPa | 530.8 ± 2.2
493.43 K, 2677.3 kPa | 127.8 ± 0.7
493.44 K, 9378.9 kPa | 589.4 ± 2.4
493.45 K, 1854.7 kPa | 83 ± 0.6
493.46 K, 5509.7 kPa | 322.2 ± 1.4
493.46 K, 6493.6 kPa | 399.3 ± 1.7
493.46 K, 7253 kPa | 456.7 ± 1.9
493.47 K, 4117.6 kPa | 218.9 ± 1
503.44 K, 2763.1 kPa | 127.7 ± 0.7
503.44 K, 8968.2 kPa | 530.3 ± 2.2
503.45 K, 1906.1 kPa | 82.9 ± 0.6
503.45 K, 7742.3 kPa | 456.3 ± 1.9
503.45 K, 10130 kPa | 588.8 ± 2.4
503.46 K, 6891.7 kPa | 398.9 ± 1.7
503.47 K, 4290.5 kPa | 218.7 ± 1
503.47 K, 5802.6 kPa | 321.9 ± 1.4
513.42 K, 2848.4 kPa | 127.6 ± 0.7
513.42 K, 8228 kPa | 455.8 ± 1.9
513.43 K, 9591.2 kPa | 529.8 ± 2.2
513.44 K, 1956.7 kPa | 82.8 ± 0.6
513.46 K, 4460.3 kPa | 218.4 ± 1
513.46 K, 7287.8 kPa | 398.5 ± 1.7
513.47 K, 6092.7 kPa | 321.6 ± 1.4
523.41 K, 2933.2 kPa | 127.5 ± 0.7
523.41 K, 8713.2 kPa | 455.4 ± 1.9
523.44 K, 6379.8 kPa | 321.3 ± 1.4
523.44 K, 10213 kPa | 529.3 ± 2.2
523.45 K, 2008.3 kPa | 82.7 ± 0.6
523.45 K, 7680.8 kPa | 398.1 ± 1.7
523.46 K, 4629.7 kPa | 218.2 ± 1
